Measured values from patent US20080113907A1, “Uses Of Galectin-2” (Charite-Universitat-Smedizin Berlin, priority 2004, published 2008).

B2: CD7 (receptor, human, UniProt P09564 26-240, looked up)
chain: AQEVQQSPHCTTVPVGASVNITCSTSGGLRGIYLRQLGPQPQDIIYYEDGVVPTTDRRFRGRIDFSGSQDNLTITMHRLQLSDTGTYTCQAITEVNVYGSGTLVLVTEEQSQGWHRCSDAPPRASALPAPPTGSALPDPQTASALPDPPAASALPAALAVISFLLGLGLGVACVLARTQIKKLCSWRDKNSAACVVYEDMSHSRCNTLSSPNQYQ
notes: whole, on cells

How the values were obtained:
[1] = test system: CD3, CD7, β1 integrin; test: Magnetic separation / co-immunoprecipitation of galectin containing complexes; assay type: binding, human; conditions: galectin coated beads, immunoblot for CD3, CD7, β1
Procedure: For immunoblotting cells were washed in PBS, and lysed in cell lysis buffer (1% Triton-X, 0.5% NP-40, 0.1% SDS, 0.5% sodium deoxycholate, 5 mM EDTA, 50 mM and 50 mM protease- and phosphatase-inhibitor cocktail 2, 1 mM PMSF, 100 μg/ml trypsin-chymotrypsin inhibitor, 100 μg/ml chymostatin in PBS). The concentration of proteins in each lysate was measured using the Bio-Rad protein assay (Bio-Rad Laboratories, Hercules, Calif.). Equivalent amounts of protein (10 μg) were fractionated on a 10-20% Tris-glycine gel and electrotransferred to a nitrocellulose membrane (Novex, San Diego, Calif.). Membranes were blocked with 5% milk in 0.1% Tween 20-PBS (Fisher Scientific, Hanover Park, Ill.), followed by incubation for 60 m in at room temperature with the indicated primary antibody. The membranes were washed six times with 0.1% Tween 20-PBS and then incubated for 1 h with the appropriate horseradish peroxidase-conjugated secondary antibody (Santa Cruz Biotechnology), washed, and incubated with the chemiluminescent substrate (Perkin-Elmer, Carlsbad, Calif.) for 5 minutes. The membranes were then exposed to film (Amersham, Arlington Heights, Ill.). […]

[2] = test system: PBT; test: Analysis of T cell cycling (DNA content, cyclin B1, cell cycle regulators); assay type: cell-based, human; conditions: anti-CD3 activated PBT; dropped from 8% (galectin-1) and 7% (galectin-7)
Procedure: For immunoblotting cells were washed in PBS, and lysed in cell lysis buffer (1% Triton-X, 0.5% NP-40, 0.1% SDS, 0.5% sodium deoxycholate, 5 mM EDTA, 50 mM and 50 mM protease- and phosphatase-inhibitor cocktail 2, 1 mM PMSF, 100 μg/ml trypsin-chymotrypsin inhibitor, 100 μg/ml chymostatin in PBS). The concentration of proteins in each lysate was measured using the Bio-Rad protein assay (Bio-Rad Laboratories, Hercules, Calif.). Equivalent amounts of protein (10 μg) were fractionated on a 10-20% Tris-glycine gel and electrotransferred to a nitrocellulose membrane (Novex, San Diego, Calif.). Membranes were blocked with 5% milk in 0.1% Tween 20-PBS (Fisher Scientific, Hanover Park, Ill.), followed by incubation for 60 m in at room temperature with the indicated primary antibody. The membranes were washed six times with 0.1% Tween 20-PBS and then incubated for 1 h with the appropriate horseradish peroxidase-conjugated secondary antibody (Santa Cruz Biotechnology), washed, and incubated with the chemiluminescent substrate (Perkin-Elmer, Carlsbad, Calif.) for 5 minutes. The membranes were then exposed to film (Amersham, Arlington Heights, Ill.).
Flow cytometry was performed after staining for DNA content, and cyclin B1, essentially as previously described (21). Briefly, cells were washed twice with PBS, adjusted to 1×10^6 cells/sample and fixed in 90% Methanol at −20° C. After fixation, cells were washed twice with PBS, incubated for 45 min at 4° C. with a cyclin B1-FITC conjugated monoclonal antibody. After the final wash, cells were resupended in PBS and 5 μl of RNase (0.6 μg/ml, 30-60 Kunitz Units, Sigma), incubated at 37° C. for 15 min and the chilled on ice. One hundred and twenty five microliters of PI (200 μg/ml) were added prior to analysis by flow cytometry. Each analysis was performed on at least 25.000 events.

[3] = test system: T cells (PBT, LPT); test: Integrin accessibility on T cell surface (flow cytometry); assay type: cell-based, human; conditions: CD3 activated PBT
Procedure: For surface staining, cells were washed twice in ice-cold PBS and 1×10^6 cells were resuspended in flow buffer (HBSS containing 1% BSA and 0.1% sodium azide). Cells were incubated with the respective mAb at predetermined saturating concentrations or with isotype-matched nonspecific mouse mAb (DAKO) for 30 min at 4° C., washed twice with flow buffer, and incubated with FITC-conjugated goat anti-mouse IgG for 30 min at 4° C. The cells were again washed twice with flow buffer, fixed in 1% paraformaldehyde and analyzed by a single laser flow cytometer (FacsCalibur, […]), using Cell Quest software (BD Pharmingen). Cells stained with a negative control Ab were gated to contain <2% positive cells. To perform analysis of intracellular proteins, cells were washed twice with PBS, adjusted to 1×10^6 cells per sample, and fixed in 90% methanol at −20° C. After fixation, cells were washed twice with PBS and incubated with a monoclonal mouse anti-bax, Bcl-2, Rb, Cyclin A, p21, p27, or p53 antibody for 45 minutes at 4° C., followed by an incubation with a goat anti-mouse FITC-conjugated mAb (Biosource) for 45 minutes at 4° C. Thereafter cells were washed and analyzed by flow cytometry as described above. The background level of immunofluorescence was determined by incubating cells with FITC-conjugated mouse IgG (isotype control).

[4] = test system: T cells (PBT, LPT); test: Adhesion assay to collagen type I and fibronectin; assay type: cell-based, human; conditions: CD3 activated PBT
Procedure: 96 well flat-bottom plates were precoated overnight at 4° C. with 12 μg/well fibronectin (Chemicon) in DPBS, 40 μg/well collagen type I (Sigma-Aldrich) in 0.1 M acetic acid, or 3% BSA (Sigma-Aldrich) in DPBS as a control and then washed three times with DPBS. Freshly isolated T cells were fluorescently-labelled with 5 μM calcein-AM (Molecular Probes, Eugene, Oreg.) for 30 min at 37° C. in 5% CO2 at 5×10^6 cells/ml in RPMI. The cells were then washed three times with RPMI containing 5% FCS. Calcein-labelled T cells were resuspended in RPMI and 5×10^5 T cells/well were added to 96-well plates containing purified ECM components or BSA for the indicated times. Saturating concentrations of integrin-blocking mAbs (predetermined by flow cytometry) were preincubated with T cells for 30 min at 37° C. before adding T cells to the wells for the adhesion assay. Nonadherent cells were removed by a standardized washing technique that was developed to minimize background binding, which includes both an orbital and a rocking motion repeated three times with RPMI. Adhesion was quantified with a multiwell fluorescent spectrophotometer (Tecan, Groedig, Austria). For each experimental group the results were expressed as the mean percentage±SD of bound T cells from triplicate wells.

[5] = target: B2; test: pull-down from T cells with Gal-2-coated magnetic beads, Western blot; agrees with antibody blocking in flow cytometry
Procedure: A) Cells were preincubated with CD3, CD7, and β1 mAb (1:100 dilution) for 1 h at RT and then cultured for additional 24 h in the presence of 5 μg/ml galectin-2 coupled to biotin. Cells were then harvested and binding of galectin-2 to T cells determined by two-color flow cytometry using streptavidin labelled-APC to detect biotinylated sites. B) Galectin-1 coimmunoprecipitates with CD3, CD7 and β1 integrin, whereas galectin-2 coimmunoprecipitate only with integrin β1. Cells were incubated with galectin-1 or -2 coated tosyl-activated beads and subsequently lysed. Bead-bound cell fragments were separated magnetically and immunoblotted for CD3, CD7 or β1. Both graphs are representative for four different experiments yielding similar results.
For separation of galectin-2-associated complexes, 1×10⁸ tosylactivated, supermagnetic, polysterene coated beads (Dynalbeads, Dynal Biotech, Oslo, Norway) were coated either with 350 μg BSA, Galectin-1, Galectin-2, CD7, integrin-β1 or OKT3 overnight at 37° C. using tilt rotation. After incubation, the beads were washed in 0.2 M Tris (pH 8.5 containing 0.1% BSA), and then incubated with 2×10⁶ PBT for 1 h at 37° C. […]

[6] = target: T1, BSA (UniProt P02769 25-607, coupled to tosylactivated magnetic beads); test: pull-down from T cells with BSA-coated magnetic beads, Western blot
T1 construct: Negative control for the bead pull-down; also called BSA control
T1 sequence (P02769 25-607 limits assumed): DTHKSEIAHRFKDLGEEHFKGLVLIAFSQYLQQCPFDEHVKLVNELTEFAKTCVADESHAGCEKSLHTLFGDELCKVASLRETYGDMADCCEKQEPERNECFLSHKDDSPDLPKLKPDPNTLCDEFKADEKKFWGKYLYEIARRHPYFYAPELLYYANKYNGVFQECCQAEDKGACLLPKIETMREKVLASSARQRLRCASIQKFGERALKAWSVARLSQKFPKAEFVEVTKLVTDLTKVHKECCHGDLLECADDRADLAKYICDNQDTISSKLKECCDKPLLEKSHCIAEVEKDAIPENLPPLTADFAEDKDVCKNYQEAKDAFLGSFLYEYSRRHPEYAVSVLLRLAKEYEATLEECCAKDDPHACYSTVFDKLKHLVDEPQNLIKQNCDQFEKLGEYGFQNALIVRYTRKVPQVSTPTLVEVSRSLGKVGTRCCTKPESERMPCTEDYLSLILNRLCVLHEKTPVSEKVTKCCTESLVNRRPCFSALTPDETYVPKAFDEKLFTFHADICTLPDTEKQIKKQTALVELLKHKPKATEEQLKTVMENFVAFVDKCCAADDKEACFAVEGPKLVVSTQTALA

## galectin-1: prototype β-galactoside binding lectin used for comparison
[1]
  glycoproteins co-immunoprecipitated: coimmunoprecipitates with CD3, CD7 and β1 integrin
[2]
  cyclin B1 expression: 1%
[3]
  β4 integrin accessibility: neither galectin-1 nor galectin-2 changed
[3]; 50 μg/ml
  integrin α5 accessibility: downregulated
  integrin β1 accessibility: downregulated
[3]; second statement
  integrin a5 accessibility: slightly upregulated
[4]; without galectin 22.1±3.5%
  cells adhering to collagen type I: 9.2±3.5%
[4]; without galectin 26.3±5.6%
  cells adhering to fibronectin: 14.0±4.6%

B1: Galectin-2 (ligand, UniProt P05162 1-132, looked up)
chain: MAGELEVKNMDMKPGSTLKITGSIADGTDGFVINLGQGTDKLNLHFNPRFSESTIVCNSLDGSNWGQEQREDHLCFSPGSEVKFTVTFESDKFKVKLPDGHELTFPNRLGHSHLSYLSVRGGFNMSSFKLKE
modifications: biotinylated (sites not given) in the flow cytometry binding assays; coupled to tosylactivated magnetic beads in the pull-down
notes: The NcoI site gave a Thr(Ser)2Ala substitution: Thr in human, Ser in rat; also called Gal-2; biotinylated Gal-2
[5]
  binding result: no binding

## B2
[6]
  binding result: no binding
